Test results from patent US20240238313A1, “DOSING OF CV-10155 IN THE EVENING OR PRIOR TO SLEEP TO TREAT GABAA DISORDERS” (priority 2021, published 2024).
Several values for one entry are separate records, joined by “and”; a condition that tells them apart may be missing. Identical values can stand only once. Entries after “also recorded” stand apart in the source; their conditions may differ. Like-named read-outs stand apart in the source and are kept apart here.

Legend:
[1] = humans, single oral dose, range of 5-135 mg
[2] = human, in vivo, 60 mg
[3] = biological target: α4β3δ GABAA receptors (extra synaptic) (Homo sapiens, UniProt P28472+P48169); details: compositions containing isomerically pure compound; described in U.S. Pat. No. 10,857,163; cited from earlier work
Sequence of α4β3δ GABAA receptors (extra synaptic) (P48169 36-554): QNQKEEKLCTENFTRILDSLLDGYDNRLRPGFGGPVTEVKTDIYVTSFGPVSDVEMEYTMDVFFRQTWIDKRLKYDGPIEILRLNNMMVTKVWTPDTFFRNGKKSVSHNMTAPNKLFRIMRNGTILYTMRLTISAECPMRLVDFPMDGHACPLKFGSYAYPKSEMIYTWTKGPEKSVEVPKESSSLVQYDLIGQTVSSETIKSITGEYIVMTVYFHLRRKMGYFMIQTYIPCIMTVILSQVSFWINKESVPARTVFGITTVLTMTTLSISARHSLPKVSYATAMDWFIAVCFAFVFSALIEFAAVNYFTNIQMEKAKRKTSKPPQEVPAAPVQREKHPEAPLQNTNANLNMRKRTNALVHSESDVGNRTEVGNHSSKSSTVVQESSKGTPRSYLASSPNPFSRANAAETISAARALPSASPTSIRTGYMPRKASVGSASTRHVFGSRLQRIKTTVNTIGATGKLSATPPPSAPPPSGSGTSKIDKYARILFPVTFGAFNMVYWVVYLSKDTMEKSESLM
Sequence of α4β3δ GABAA receptors (extra synaptic) (P28472 26-473): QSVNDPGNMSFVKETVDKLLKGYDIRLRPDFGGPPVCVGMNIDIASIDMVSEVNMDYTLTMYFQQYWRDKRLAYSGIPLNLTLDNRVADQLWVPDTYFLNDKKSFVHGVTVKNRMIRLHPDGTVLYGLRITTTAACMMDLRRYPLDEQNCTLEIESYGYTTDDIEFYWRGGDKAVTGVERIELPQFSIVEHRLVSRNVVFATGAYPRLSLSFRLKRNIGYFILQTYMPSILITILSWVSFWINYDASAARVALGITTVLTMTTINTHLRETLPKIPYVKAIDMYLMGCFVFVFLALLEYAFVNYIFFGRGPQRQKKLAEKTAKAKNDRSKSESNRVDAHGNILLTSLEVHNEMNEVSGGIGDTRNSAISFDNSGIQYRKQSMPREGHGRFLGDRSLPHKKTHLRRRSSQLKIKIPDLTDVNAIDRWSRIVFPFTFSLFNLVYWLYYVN
Sequence of α4β3δ GABAA receptors (extra synaptic) (O14764 17-452 partner limits assumed): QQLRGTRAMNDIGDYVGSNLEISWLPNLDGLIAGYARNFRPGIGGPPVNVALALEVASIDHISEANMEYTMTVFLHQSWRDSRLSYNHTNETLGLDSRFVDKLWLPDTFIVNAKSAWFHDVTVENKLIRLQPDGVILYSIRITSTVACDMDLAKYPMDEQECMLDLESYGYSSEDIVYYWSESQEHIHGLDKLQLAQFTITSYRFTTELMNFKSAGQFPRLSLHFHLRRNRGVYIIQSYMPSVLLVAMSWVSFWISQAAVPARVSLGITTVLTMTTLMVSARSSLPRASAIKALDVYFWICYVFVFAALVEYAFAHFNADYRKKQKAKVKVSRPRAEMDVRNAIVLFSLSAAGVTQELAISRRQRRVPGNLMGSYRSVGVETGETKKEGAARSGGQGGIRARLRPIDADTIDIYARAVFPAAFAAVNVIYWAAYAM

[4] = 60 mg CV-10155 orally once per day for seven days in humans (MAD): PK and adverse events
[5] = system: Forced swim test; experiment: Forced swim test - Depression; set-up: species or system rodent; details: in vivo
[6] = cited from earlier work
[7] = 10 mg in HPMC-AS formulation PO, fed cohort, individual dogs #9-12 and mean (r14)
[8] = 10 mg in HPMC-AS formulation PO, pentagastrin/fasted cohort, individual dogs #1-4 and mean (r14)
[9] = 30 mg in HPMC-AS formulation PO, pentagastrin/fasted cohort, individual dogs #13-16 and mean (r14)
[10] = 60 mg, evening, fed state, N = 9
[11] = 60 mg, morning, fasted state, N = 9

C[C@@]1(O)CC[C@@]2(C)[C@@H](CC[C@@H]3[C@@H]2CC[C@]2(C)[C@@H](C(=O)Cn4cc(C#N)cn4)CC[C@@H]32)C1 [CV-10155, 1-[2-[(3R,5S,8R,9S,10S,13S,14S,17S)-3-hydroxy-3,10,13-trimethyl-1,2,4,5,6,7,8,9,11,12,14,15,16,17-tetradecahydrocyclopenta[a]phenanthren-17-yl]-2-oxoethyl]pyrazole-4-carbonitrile]
AUCInf [7]: 2440 ng·h/mL
AUCInf/D [7]: 5602 kg·ng·h/mL/mg and 2929 kg·ng·h/mL/mg and 2273 kg·ng·h/mL/mg and 4084 kg·ng·h/mL/mg
T1/2 [7]: 12.5 h
Tmax [7]: 1.13 h
AUCInf [8]: 2612 ng·h/mL
AUCInf/D [8]: 2762 kg·ng·h/mL/mg and 2441 kg·ng·h/mL/mg and 3314 kg·ng·h/mL/mg and 2821 kg·ng·h/mL/mg
Tmax [8]: 1.50 h
AUCInf/D [9]: 4995 kg·ng·h/mL/mg and 3157 kg·ng·h/mL/mg and 1572 kg·ng·h/mL/mg and 2982 kg·ng·h/mL/mg
T1/2 [9]: 12.3 h
dose-limiting adverse events [1]: No dose-limiting adverse events
Racc Cmax [2]: 1.78
preferential potentiation of α4β3δ as compared to α1β2γ2 GABAA receptors [3]: preferentially potentiate α4β3δ GABAA receptors
AE Back pain, # [4, 10]: 1
AE Bloating, # [4, 10]: 1
AE Dizziness, # [4, 10]: 1
AE Headache, # [4, 10]: 2
AE Sleepiness, # ([4]; 60 mg, evening, fed state, N = 9 (two separate table lines)): 1
AE Dizziness, # [4, 11]: 1
AE Feeling sleepy, # [4, 11]: 1
AE Feeling tired, # [4, 11]: 2
AE Headache, # [4, 11]: 2
AE Sleepiness, # [4, 11]: 9
AE Tiredness, # [4, 11]: 3
tolerability profile compared to PRAX-114 and Sage-217 ([4]; humans, 60 mg dosed in the evening): favorable tolerability profile compared to PRAX-114
exposure levels compared with 30 mg doses of Sage-217 ([4]; humans, 60 mg doses): higher exposure levels
AE ([4]; humans, CV-10155 in the evening in a fed state, individual subjects): Headache; also recorded: Somnolence; also recorded: Back pain; also recorded: Abdominal distension; also recorded: Dizziness
Severity ([4]; humans, evening, fed state, per AE of the same table row): Moderate and Mild
adverse effects interfering with sleeping ([4]; humans, oral, evening, fed subjects): does not produce adverse effects that interfere with sleeping

C[C@@]1(O)CC[C@H]2[C@H](CC[C@@H]3[C@@H]2CC[C@]2(C)[C@@H](C(=O)Cn4cc(C#N)cn4)CC[C@@H]32)C1 [Sage-217]
Doses tested in Forced swim test - Depression (* significantly efficacious dose) [5]: 1 - 3* mg/kg
Any AE, (%) ([6]; 20 mg (n-188)): 50.0%
Diarrhea, (%) ([6]; 20 mg (n-188)): 5.9%
Dizziness, (%) ([6]; 20 mg (n-188)): 7.4%
Fatigue, (%) ([6]; 20 mg (n-188)): 1.6%
Headache, (%) ([6]; 20 mg (n-188)): 11.2%
Nausea, (%) ([6]; 20 mg (n-188)): 5.3%
Sedation, (%) ([6]; 20 mg (n-188)): 5.9%
Somnolence, (%) ([6]; 20 mg (n-188)): 5.9%
Any AE, (%) ([6]; 30 mg (n-192)): 54.2%
Diarrhea, (%) ([6]; 30 mg (n-192)): 6.3%
Dizziness, (%) ([6]; 30 mg (n-192)): 5.7%
Fatigue, (%) ([6]; 30 mg (n-192)): 6.8%
Headache, (%) ([6]; 30 mg (n-192)): 6.3%
Nausea, (%) ([6]; 30 mg (n-192)): 3.6%
Sedation, (%) ([6]; 30 mg (n-192)): 4.7%
Somnolence, (%) ([6]; 30 mg (n-192)): 6.8%
